Results published in patent US8952024B2, “Herbicidal pyrimidone derivatives” (E I du Pont de Nemours and Company, priority 2009, dated 2015).

Tests used:
Assay type in all cases: in vivo
[1] = system: galium (catchweed bedstraw, Galium aparine); experiment: Test C plant response; settings: Preemergence, scale 0 to 100
[2] = system: pigweed (Amaranthus retroflexus); experiment: Test C plant response; settings: Preemergence, scale 0 to 100
[3] = system: wild radish (Raphanus raphanistrum); experiment: Test C plant response; settings: Preemergence, scale 0 to 100
[4] = system: Russian thistle (Salsola iberica); experiment: Test F combination of compound 2 with bromoxynil, postemergence; settings: 15 days, mean of three replicates, scale 0 to 100
Procedure: Test F evaluated the effect of combining compound 2 with bromoxynil. The test species for this experiment was Russian thistle (Salsola iberica), which was prepared by sowing seeds into a blend of loam soil and sand. Test chemicals were formulated in a non-phytotoxic solvent mixture that included a surfactant and applied postemergence to plants ranging in height from 12 to 20 cm. […] Treatments consisted of Compound 2, bromoxynil, or their combination, using a spray volume of 457 L/ha. Each treatment was replicated three times. Treated plants and untreated controls were maintained in a greenhouse for 15 days, after which time all plants were visually evaluated and compared to the untreated controls. […] Colby's Equation was used to determine the herbicidal effects expected from the mixtures. Colby's Equation (Colby, S.

[5] = system: bromegrass (downy bromegrass, Bromus tectorum); experiment: Test C plant response; settings: Preemergence, scale 0 to 100
[6] = system: chickweed (common chickweed, Stellaria media); experiment: Test C plant response; settings: Preemergence, scale 0 to 100
[7] = system: winter barley (Hordeum vulgare); experiment: Test C plant response; settings: Preemergence, scale 0 to 100
[8] = system: oilseed rape (Brassica napus); experiment: Test C plant response; settings: Preemergence, scale 0 to 100
[9] = system: spring wheat (Triticum aestivum); experiment: Test C plant response; settings: Preemergence, scale 0 to 100
[10] = system: water seeded rice seedlings (Oryza sativa cv. ‘Japonica—M202’); experiment: Test E flooded paddy rice and weeds; settings: applied to paddy water, 21 days, scale 0 to 100
Outline: (§1)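 Tama silt loam pots; plants at 2.0–2.5 leaves; flood 3 cm, compound into water; 30/27° C greenhouse, 16 h photoperiod; visual % control vs untreated at 21 d.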

[11] = system: junglerice (Echinochloa colona); experiment: Test E flooded paddy rice and weeds; settings: applied to paddy water, 21 days, scale 0 to 100
Outline: as §1

[12] = system: flatsedge (rice flatsedge, Cyperus iria); experiment: Test E flooded paddy rice and weeds; settings: applied to paddy water, 21 days, scale 0 to 100
Outline: as §1

[13] = system: ducksalad (Heteranthera limosa); experiment: Test E flooded paddy rice and weeds; settings: applied to paddy water, 21 days, scale 0 to 100
Outline: as §1

[14] = system: redstem (purple redstem, Ammannia coccinea); experiment: Test E flooded paddy rice and weeds; settings: applied to paddy water, 21 days, scale 0 to 100
Outline: as §1

[15] = system: sprangletop (bearded (i.e. Brdd.) sprangletop, Leptochloa fascicularis); experiment: Test E flooded paddy rice and weeds; settings: applied to paddy water, 21 days, scale 0 to 100
Outline: as §1

[16] = system: transplanted rice seedlings (Oryza sativa cv. ‘Japonica—M202’); experiment: Test E flooded paddy rice and weeds; settings: applied to paddy water, 21 days, scale 0 to 100
Outline: as §1

[17] = system: late watergrass (Echinochloa oryzicola); experiment: Test E flooded paddy rice and weeds; settings: applied to paddy water, 21 days, scale 0 to 100
Outline: as §1

[18] = system: barnyardgrass (Echinochloa crus-galli); experiment: Test E flooded paddy rice and weeds; settings: applied to paddy water, 21 days
Outline: as §1

With `O=C1CCCC(O)=C1C(=O)c1cnc(-c2ccccc2)n(-c2ccccc2)c1=O` [Compound 2, 5-[(2-hydroxy-6-oxo-1-cyclohexen-1-yl)carbonyl]-2,3-diphenyl-4(3H)-pyrimidinone] the “Plant response rating: Galium” value ([1]; 62 g ai/ha) was 0, the “Plant response rating: Galium” value ([1]; 125 g ai/ha) was 50 and the “Plant response rating: Pigweed” value ([2]; 62 g ai/ha) was 65. The “Plant response rating: Pigweed” value ([2]; 125 g ai/ha) was 85, the “Plant response rating: Pigweed” value ([2]; 16 g ai/ha) was 0 and the “Plant response rating: Pigweed” value ([2]; 31 g ai/ha) was 20. For the same molecule, the “Plant response rating: Radish, Wild” value ([3]; 62 g ai/ha) was 0, the “Plant response rating: Radish, Wild” value ([3]; 125 g ai/ha) was 0 and the “Plant response rating: Radish, Wild” value ([3]; 16 g ai/ha) was 0. The “Plant response rating: Radish, Wild” value ([3]; 31 g ai/ha) was 0, the “Russian Thistle Obsd. (observed effect)” value ([4]; Cmpd 2 62 g a.i./ha alone) was 42 and the “Russian Thistle Obsd. (observed effect)” value ([4]; Cmpd 2 125 g a.i./ha alone) was 52. For the same molecule, the “Plant response rating: Bromegrass, Downy” value ([5]; 62 g ai/ha) was 0, the “Plant response rating: Bromegrass, Downy” value ([5]; 125 g ai/ha) was 0 and the “Plant response rating: Bromegrass, Downy” value ([5]; 16 g ai/ha) was 0. The “Plant response rating: Bromegrass, Downy” value ([5]; 31 g ai/ha) was 0, the “Plant response rating: Chickweed” value ([6]; 62 g ai/ha) was 98 and the “Plant response rating: Chickweed” value ([6]; 125 g ai/ha) was 98. The “Plant response rating: Chickweed” value ([6]; 16 g ai/ha) was 75, the “Plant response rating: Chickweed” value ([6]; 31 g ai/ha) was 98 and the “Plant response rating: Barley, Winter” value ([7]; 62 g ai/ha) was 0. For the same molecule, the “Plant response rating: Barley, Winter” value ([7]; 125 g ai/ha) was 0, the “Plant response rating: Barley, Winter” value ([7]; 16 g ai/ha) was 0 and the “Plant response rating: Barley, Winter” value ([7]; 31 g ai/ha) was 0. The “Plant response rating: Oilseed Rape” value ([8]; 62 g ai/ha) was 35, the “Plant response rating: Oilseed Rape” value ([8]; 125 g ai/ha) was 65 and the “Plant response rating: Oilseed Rape” value ([8]; 16 g ai/ha) was 0. The “Plant response rating: Oilseed Rape” value ([8]; 31 g ai/ha) was 20, the “Plant response rating: Wheat, Spring” value ([9]; 62 g ai/ha) was 0 and the “Plant response rating: Wheat, Spring” value ([9]; 125 g ai/ha) was 0. For the same molecule, the “Plant response rating: Wheat, Spring” value ([9]; 16 g ai/ha) was 0 and the “Plant response rating: Wheat, Spring” value ([9]; 31 g ai/ha) was 0.

In the case of `COc1cccc(-n2c(-c3ccccc3)ncc(C(=O)C3=C(O)CCCC3=O)c2=O)c1` [Compound 19], the “Plant response rating, Rice, Water Seeded, Flood” value ([10]; 64 g ai/ha) is reported as 0, the “Plant response rating, Rice, Water Seeded, Flood” value ([10]; 125 g ai/ha) is reported as 40 and the “Plant response rating, Rice, Water Seeded, Flood” value ([10]; 250 g ai/ha) is reported as 70. For the same molecule, the “Plant response rating, Rice, Water Seeded, Flood” value ([10]; 500 g ai/ha) was 95, the “Plant response rating, Junglerice, Flood” value ([11]; 64 g ai/ha) was 0 and the “Plant response rating, Junglerice, Flood” value ([11]; 125 g ai/ha) was 50. For the same molecule, the “Plant response rating, Junglerice, Flood” value ([11]; 250 g ai/ha) was 65, the “Plant response rating, Junglerice, Flood” value ([11]; 500 g ai/ha) was 80 and the “Plant response rating, Flatsedge, Rice, Flood” value ([12]; 64 g ai/ha) was 40. For the same molecule, the “Plant response rating, Flatsedge, Rice, Flood” value ([12]; 125 g ai/ha) was 40, the “Plant response rating, Flatsedge, Rice, Flood” value ([12]; 250 g ai/ha) was 95 and the “Plant response rating, Flatsedge, Rice, Flood” value ([12]; 500 g ai/ha) was 100. For the same molecule, the “Plant response rating, Ducksalad, Flood” value ([13]; 64 g ai/ha) was 85, the “Plant response rating, Ducksalad, Flood” value ([13]; 125 g ai/ha) was 95 and the “Plant response rating, Ducksalad, Flood” value ([13]; 250 g ai/ha) was 100. The “Plant response rating, Ducksalad, Flood” value ([13]; 500 g ai/ha) was 100, the “Plant response rating, Redstem, Flood” value ([14]; 64 g ai/ha) was 0 and the “Plant response rating, Redstem, Flood” value ([14]; 125 g ai/ha) was 90. The “Plant response rating, Redstem, Flood” value ([14]; 250 g ai/ha) was 90, the “Plant response rating, Redstem, Flood” value ([14]; 500 g ai/ha) was 85 and the “Plant response rating, Sprangletop, Brdd., Flood” value ([15]; 64 g ai/ha) was 75. For the same molecule, the “Plant response rating, Sprangletop, Brdd., Flood” value ([15]; 125 g ai/ha) was 95, the “Plant response rating, Sprangletop, Brdd., Flood” value ([15]; 250 g ai/ha) was 100 and the “Plant response rating, Sprangletop, Brdd., Flood” value ([15]; 500 g ai/ha) was 100. The “Plant response rating, Rice, Transplanted, Flood” value ([16]; 64 g ai/ha) was 0, the “Plant response rating, Rice, Transplanted, Flood” value ([16]; 125 g ai/ha) was 35 and the “Plant response rating, Rice, Transplanted, Flood” value ([16]; 250 g ai/ha) was 40. For the same molecule, the “Plant response rating, Rice, Transplanted, Flood” value ([16]; 500 g ai/ha) was 65, the “Plant response rating, Watergrass, Late, Flood” value ([17]; 64 g ai/ha) was 0 and the “Plant response rating, Watergrass, Late, Flood” value ([17]; 125 g ai/ha) was 45. For the same molecule, the “Plant response rating, Watergrass, Late, Flood” value ([17]; 250 g ai/ha) was 60, the “Plant response rating, Watergrass, Late, Flood” value ([17]; 500 g ai/ha) was 55 and the “Plant response rating, Barnyardgrass, Flood” value ([18]; 64 g ai/ha, scale 0 to 100) was 60. The “Plant response rating, Barnyardgrass, Flood” value ([18]; 125 g ai/ha, scale 0 to 100) was 60, the “Plant response rating, Barnyardgrass, Flood” value ([18]; 250 g ai/ha, scale 0 to 100) was 70 and the “Plant response rating, Barnyardgrass, Flood” value ([18]; 500 g ai/ha, scale 0 to 100 (0 no effect, 100 complete control)) was 85.
